Patent publication US20260000642A1 (Tay Therapeutics Limited, priority 2022, published 2026)

Assays:
BRD4 BD1 = biological target: T1, BRD4 BD1 (Homo sapiens, UniProt O60885); test: NanoBRET bromodomain assay, NanoLuc-BRD4-BD1 fusion vector in HEK293 cells; assay type: cell-based; conditions: top concentration 10 μM
T1 construct: HEK293 cells were transfected using NanoLuc-BRD4-BD1 or NanoLuc-BRD4-BD2 fusion vectors; host or cells: HEK293
Source text: (§1) Bromodomain Assay Procedure

BRD4 BD2 = biological target: T2, BRD4 BD2 (Homo sapiens, UniProt O60885); test: NanoBRET bromodomain assay, NanoLuc-BRD4-BD2 fusion vector in HEK293 cells; assay type: cell-based; conditions: NanoBRET, HEK293 cells, top concentration 10 μM
T2 construct: HEK293 cells were transfected using NanoLuc-BRD4-BD1 or NanoLuc-BRD4-BD2 fusion vectors; host or cells: HEK293
Source text: as §1

[1] = Plasma stability assay, rat plasma; assay type: in vitro ADME; conditions: 37° C.
Description: Exemplary compounds of the disclosure are stable upon incubation in mouse plasma. Stability is expressed as a % remaining after 120 minutes. The experimental methods and results (Table 2) are provided hereinafter.
Plasma Stability Assay, Method 1
From stock solution of compound in 10 mM DMSO, a working solution of 1 mM is prepared by diluting the compound in DMSO. To 398 μL of plasma pre-warmed at 37° C. for 15 minutes), 2 μL of working solution of compound is added, resulting in a final concentration of 5 μM (0.5% DMSO) for the compound. The sample is then incubated at 37° C. Aliquot is withdrawn at specified time-points (0, 15, 30, 60 and 120 mins). The reaction is stopped by addition of 450 μL cold acetonitrile containing internal standard (IS). […] Aliquots of the supernatant is analysed using LC-MS/MS. The percent remaining of the compound at each time point is calculated with respect to the control sample (0 min time-point).
Plasma Stability Assay, Method 2
A working solution of compound (500 μM) is prepared in DMSO (100%). To 735 μL of plasma, 15 μL of working solution of compound is added—resulting in a final concentration of 10 μM (2% DMSO) for the compound. The sample is then incubated at 37° C. Aliquot is withdrawn at time-points—0, 15, 30, 60, 90 and 120 mins. The reaction is stopped by using chilled acetonitrile containing internal standard (IS). The samples are centrifuged and the supernatants analyzed using LC-MS/MS. The percent remaining of the compound at each time point is calculated with respect to the control sample (0 min time-point).

[2] = Sprague-Dawley rat pharmacokinetics (IV and PO); assay type: in vivo; conditions: male Sprague-Dawley rats, cassette mode, Method 1
Source text: BET protein inhibitors with a long half-life and good oral bioavailability in in vivo DMPK parameters are promising oral drug candidates. Some of the exemplary compounds of the current disclosure have a long half-life and good oral bioavailability in in vivo DMPK parameters in the Sprague-Dawley rat following intravenous (IV) and oral (PO) dosing. The experimental methods and results (Table 5) are provided hereinafter.
Sprague-Dawley Rat Pharmacokinetics, Method 1
Compounds were formulated in 5% DMSO, 40% PEG-400, 55% Milli-Q water at a concentration of 0.2 mg/mL for IV and at 0.5 mg/mL for PO. Two male Sprague-Dawley rats per arm were dosed with up to 5 compounds in cassette mode, which each compound being dosed at 1 mg/kg IV and 5 mg/kg PO. Blood was sampled at various timepoints and plasma isolated. 50 μL of plasma with 5 μL of blank Sprague-Dawley rat plasma were added to 200 μL of acetonitrile containing IS mixture. The samples were vortexed for 30 s. After centrifugation at 4 degrees Celsius, 3900 rpm for 15 min, the supernatant was diluted 3 times with water. 20 μL of diluted supernatant was injected into the LC/MS/MS system for quantitative analysis and concentration of analyte determined by comparison with matrix matched standard curve. WinNonlin (Phoenix™, version 8.3) or other similar software may be used for pharmacokinetic calculations.

[3] = Plasma stability assay, human plasma; assay type: in vitro ADME; conditions: 37° C., Method 1 (5 μM)
[4] = Intrinsic clearance in liver microsomes, mouse; assay type: in vitro ADME; conditions: pH 7.4, mouse liver microsomes 0.5 mg/mL, Method 1, read-out: Half-Life (T1/2) (min) Mouse
Description: (§2) BET protein inhibitors with a long half-life in liver microsomes from various species are in some embodiments promising oral drug candidates. Some of the exemplary compounds of the current disclosure have a long half-life in liver microsomes, expressed in minutes. The experimental methods and results (Table 3) are provided hereinafter.
(§3) Intrinsic Clearance in Liver Microsomes Assay, Method 1
(§4) From stock solution of compound on 10 mM DMSO, a working solution of 0.1 mM is prepared by diluting the compound in DMSO. 6.25 μL of a 20 mg/mL solution of microsomes in PBS pH 7.4 buffer is added to 216.25 μL PBS pH 7.4 buffer (final microsome concentration—0.5 mg/mL). 25 μL of 10 mM solution of NADPH in PBS pH 7.4 buffer is added to the incubations (final NADPH concentration—1 mM). The mixture is pre-warmed to 37° C. for 10 minutes. 2.5 μL of test compound working solution is added (final compound concentration—1 μM with 1% DMSO). […] The percent compound remaining at each time point is calculated with respect to that of the 0.5 min sample. The data are analysed to calculate half-life. […]
(§5) A 50 mM stock solution (in DMSO) is prepared for the compound. […] The samples are centrifuged, and the supernatants analysed by LC-MS/MS. The percent compound remaining at each time point is calculated with respect to that of the 0 min sample. The data are then analysed to calculate half-life and intrinsic clearance (CLint). […]

[5] = Intrinsic clearance in liver microsomes, rat; assay type: in vitro ADME; conditions: pH 7.4, rat liver microsomes 0.5 mg/mL, Method 1, read-out: Half-Life (T1/2) (min) Rat
Description: as §2, §3, §4, §5

IL-17A = test: Human PBMC assay, IL-17A by ELISA (CD2/CD3/CD28 bead stimulation); assay type: cell-based; conditions: 72 hours
Description: (§6) CD2, CD3, and CD28 antibody-coated beads from the T-cell activation/expansion kit (Miltenyi Biotec) were added to the PBMC at a bead-to-cell ratio of 1:2. The mixture of PBMCs and beads were seeded into the wells of the round-bottom 96-well plate at a concentration of 2×10^5 cells/well in a total volume of 200 μL. The cells were cultured for 72 hours at 37° C. and 5% CO2 and then supernatants were collected and IL-17A and IL-22 levels were measured by ELISA. […] The final compound concentration ranged from 30,000 nM to 0.005 nM and the final DMSO concentration per well was 0.3%. PBMCs were seeded at approximately […] in the wells of the 96-well tissue culture plate in a total volume of 190 μL. The plate was incubated for 1 hour at 37° C. and 5% CO2. […] The cells were then cultured for 24 hours at 37° C. and 5% CO2. The supernatant was collected and CXCL10 levels were measured by ELISA.

IL-22 = test: Human PBMC assay, IL-22 by ELISA (CD2/CD3/CD28 bead stimulation); assay type: cell-based; conditions: 72 hours
Description: as §6

CXCL10 = test: Human PBMC assay, CXCL10 by ELISA (IFN-γ stimulation); assay type: cell-based
Description: The impact of Examples 23, 80, and 101 on IL-17A, IL-22, and CXCL10 levels was analyzed in cryopreserved human peripheral blood mononuclear cells (PBMC) by ELISA.
For IL-17A and IL-22 assays, Examples 23, 80, and 101 were serially diluted from 10 mM in DMSO and further diluted in assay media to 100× the required final concentration, of which, 2 μL was added per well to a round-bottom 96-well tissue culture plate where the final DMSO concentration per well was 0.1%. CD2, CD3, and CD28 antibody-coated beads from the T-cell activation/expansion kit (Miltenyi Biotec) were added to the PBMC at a bead-to-cell ratio of 1:2. The mixture of PBMCs and beads were seeded into the wells of the round-bottom 96-well plate at a concentration of 2×10^5 cells/well in a total volume of 200 μL. The cells were cultured for 72 hours at 37° C. and 5% CO2 and then supernatants were collected and IL-17A and IL-22 levels were measured by ELISA. For the CXCL10 assay, Examples 23, 80, and 101 were serially diluted from 10 mM in DMSO and further diluted in assay media to 100× the required final concentration, of which 2 μL was added per well to a 96-well tissue culture plate. The final compound concentration ranged from 30,000 nM to 0.005 nM and the final DMSO concentration per well was 0.3%. PBMCs were seeded at approximately […] in the wells of the 96-well tissue culture plate in a total volume of 190 μL. The plate was incubated for 1 hour at 37° C. and 5% CO2. The cells were then stimulated with IFN-γ (15 ng/mL final concentration) in a volume of 10 μL. The cells were then cultured for 24 hours at 37° C. and 5% CO2. The supernatant was collected and CXCL10 levels were measured by ELISA.

CNC(=O)c1[nH]c(C(=O)NC2COC2)cc1OC(C)c1ccc(Cl)cc1 (single isomer, unassigned) [Example 31, 3-(1-(4-chlorophenyl)ethoxy)-N^2-methyl-N^5-(oxetan-3-yl)-1H-pyrrole-2,5-dicarboxamide]
IC50 (BRD4 BD1): ≥ 10 µM
IC50 (BRD4 BD2): 0.05 to 0.2 µM
Plasma Stability (% remaining at 120 minutes) Rat ([1]; Method 2 (10 μM)): 81%
IV T1/2 ([2]; IV 1 mg/kg): 0.6 h
PO F (%) ([2]; PO 5 mg/kg (IV 1 mg/kg)): 15%

CNC(=O)c1[nH]c(C(=O)N[C@H]2CC[C@H](O)CC2)cc1O[C@@H](C)c1ccccc1 (single isomer, unassigned) [Example 97]
Plasma Stability (% remaining at 120 minutes) Rat ([1]; Method 1 (5 μM)): >99%
Plasma Stability (% remaining at 120 minutes) Human [3]: >99%
half-life at 1 μM [4]: 70 min
half-life at 1 μM [5]: > 60 min
bioavailability ([2]; rat, plasma, PO 5 mg/kg (IV 1 mg/kg), read-out: PO F (%)): 60%

CNC(=O)c1[nH]c(-c2ncc(C)[nH]2)cc1O[C@@H](C)c1ccccc1 [Example 23, (S)—N-methyl-5-(5-methyl-1H-imidazol-2-yl)-3-(1-phenylethoxy)-1H-pyrrole-2-carboxamide]
IC50 for IL-17A relative to GSK620 (IL-17A): decreased mean 1050
IC50 for IL-22 relative to GSK620 (IL-22): decreased mean 1050
selectivity to induction of CXCL10 relative to IL-17A and IL-22 (CXCL10): showed selectivity

CNC(=O)c1[nH]c(-c2cnn(C(C)C)c2)cc1O[C@@H](C)c1ccccc1 [Example 80, (S)-5-(1-isopropyl-1H-pyrazol-4-yl)-N-methyl-3-(1-phenylethoxy)-1H-pyrrole-2-carboxamide]
IC50 for IL-17A relative to GSK620 (IL-17A): increased mean 1050
IC50 for IL-22 relative to GSK620 (IL-22): decreased mean 1050
selectivity to induction of CXCL10 relative to IL-17A and IL-22 (CXCL10): showed selectivity
